Laboratory results taken from US6835567B1, “PNS cell lines and methods of use therefor” (priority 1998, dated 2004).
Entries after “also recorded” stand apart in the source; their conditions may differ.

Experiments:
[1] = system: differentiated immortalized rat DRG cells; test: Whole-cell patch clamp, ATP current in rat DRG cells; assay type: cell-based; conditions: for desensitization of elicited currents: 100 μM, 5-second applications, differentiated 3-4 weeks
HDRGVIII-C10.6 cells [2] = test: Whole-cell patch clamp characterization of […]-C10.6; assay type: cell-based, human; conditions: for I Capsaicin: 1 μM; for I Purinergic (αβmeATP): 100 μM
capsaicin receptors [3] = molecular target: T1, capsaicin receptors (Homo sapiens, UniProt Q8NER1); test: Whole-cell patch clamp, capsaicin current in […]-C10; assay type: cell-based
T1 construct: endogenous in cells
T1 sequence (Q8NER1 whole entry): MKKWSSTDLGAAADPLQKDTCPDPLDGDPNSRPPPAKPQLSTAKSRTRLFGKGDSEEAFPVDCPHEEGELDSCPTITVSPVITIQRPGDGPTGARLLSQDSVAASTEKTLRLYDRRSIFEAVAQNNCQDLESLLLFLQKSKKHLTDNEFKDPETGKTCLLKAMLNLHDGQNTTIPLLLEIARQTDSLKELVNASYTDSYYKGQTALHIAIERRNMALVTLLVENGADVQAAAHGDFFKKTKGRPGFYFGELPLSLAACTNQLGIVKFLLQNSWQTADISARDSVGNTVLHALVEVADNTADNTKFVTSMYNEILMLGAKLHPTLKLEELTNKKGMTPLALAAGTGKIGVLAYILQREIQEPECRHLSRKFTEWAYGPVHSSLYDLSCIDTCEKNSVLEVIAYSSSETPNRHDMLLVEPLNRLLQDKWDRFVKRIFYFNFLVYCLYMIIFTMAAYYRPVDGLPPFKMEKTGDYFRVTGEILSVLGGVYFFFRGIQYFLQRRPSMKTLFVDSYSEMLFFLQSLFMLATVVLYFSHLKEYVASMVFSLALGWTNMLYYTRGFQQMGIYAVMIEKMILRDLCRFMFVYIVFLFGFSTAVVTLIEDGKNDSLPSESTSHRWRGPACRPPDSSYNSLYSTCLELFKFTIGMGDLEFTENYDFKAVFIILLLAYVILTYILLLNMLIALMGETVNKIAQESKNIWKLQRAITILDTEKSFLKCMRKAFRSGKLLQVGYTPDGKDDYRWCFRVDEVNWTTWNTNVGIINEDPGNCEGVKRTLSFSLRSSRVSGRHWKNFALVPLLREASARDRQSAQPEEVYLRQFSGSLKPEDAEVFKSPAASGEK

capsaicin receptors [4] = molecular target: T1, capsaicin receptors; test: Cobalt histology for capsaicin sensitivity, […]-C11; assay type: cell-based
Excerpt: (§1) In certain aspects of the present invention, conditionally-immortalized PNS progenitor cell lines may be used in a variety of in vitro assays and screens. In one such aspect, the cell lines may be used in in vitro assays for agents that inhibit the capsaicin response. Briefly, a clonal neuronal cell line may be differentiated under conditions in which capsaicin responsiveness can be assessed with a cobalt histological method. Capsaicin can be added to the culture in the presence or absence of a candidate agent, and cobalt uptake evaluated. Agents that block cobalt staining may act as capsaicin receptor antagonists.

[5] = system: differentiated immortalized rat DRG cells; test: Whole-cell patch clamp, capsaicin current in rat DRG cells; assay type: cell-based; conditions: differentiated rat DRG cells (n=6)
capsaicin receptors [6] = molecular target: T1, capsaicin receptors; test: Cobalt histology for capsaicin sensitivity, […]-C10.6; assay type: cell-based; conditions: 10 μM capsaicin; differentiated 7 days with T, HS, Fsk, G, C, N plus NT-3
Excerpt: as §1

HDRGVIII-C10 cells = test: NF160 immunolabeling after differentiation of […]-C10; assay type: cell-based; conditions: 10 days with tetracycline, human serum, GDNF, CNTF, NGF plus forskolin (10 μM) or retinoic acid (0.5 μM)
Excerpt: Neuronal differentiation. […] After differentiation, phase-bright cells extending long fasciculating processes were present.

[7] = system: immortalized rat DRG cultures; test: βIII tubulin and NF160 immunolabeling, immortalized rat DRG cultures; assay type: cell-based; conditions: for βIII-tubulin positive cells: 10 ng/mL in combination with NGF, rat serum and retinoic acid, rat tail collagen substrate
v-myc oncoprotein = test: Immunocytochemistry for v-myc in […]-C10; assay type: cell-based, human; conditions: after 6 days of tetracycline treatment (75±1.3% in proliferative condition)
[8] = system: differentiated HDRGVIII-C10 cells; test: Whole-cell patch clamp, ATP current in […]-C10; assay type: cell-based, human; conditions: 10 μM; differentiated 1-2 weeks
[9] = system: conditionally-immortalized rat neural crest stem cells; test: βIII tubulin immunolabeling, immortalized rat neural crest stem cells; assay type: cell-based; conditions: with tetracycline, 5 days; LIF 100 ng/ml; EFN = EGF 100 ng/ml, FGF-2 4 ng/ml, NGF 2.0 ng/ml
HDRGVIII-C11 cells = test: βIII-tubulin-positive neurons after differentiation of […]-C11; assay type: cell-based, human
HDRGVIII-C10.6 cells [10] = test: Peripherin immunolabeling after differentiation of […]-C10.6; assay type: cell-based, human; conditions: T, HS, Fsk, G, C, N, plus NT-3 (25 ng/ml), 5 days (31±9% without NT-3)

## Nc1ncnc2c1ncn2[C@@H]1O[C@H](COP(=O)(O)OP(=O)(O)OP(=O)(O)O)[C@@H](O)[C@H]1O [ATP]
[1]
  desensitization of elicited currents: ~15%
[1]; after 1 week of differentiation (n=14)
  cells with ATP-activated current: no cells
[1]; after 3 weeks of differentiation
  cells with ATP-activated current: ~30%

## NC1=N[C@H](O)[C@H]2[C@H]3O[C@]4(O)O[C@@H]([C@@H](O)[C@@]2(N1)[C@@H]4O)[C@]3(O)CO [TTX, tetrodotoxin]
HDRGVIII-C10.6 cells [2]
  sensitivity of voltage-gated sodium currents: TTX-sensitive

## COc1cc(CNC(=O)CCCC/C=C/C(C)C)ccc1O [capsaicin]
Capsaicin receptors [3]; 1 μM, differentiated cells with neuronal morphology
  response to capsaicin: exhibited responses
Capsaicin receptors [3]; prior to differentiation
  response to capsaicin: no immortalized human PNS HDRGVIII-C10 cells exhibited responses
Capsaicin receptors [4]; 10 μM or 100 μM, differentiated with T, HS, Fsk, G, C, N plus NT-3
  cells with neuronal morphology sensitive to capsaicin (cobalt precipitate): Approximately 30%
[5]
  response to capsaicin: did not exhibit responses
Capsaicin receptors [6]
  cells with neuronal morphology exhibiting cobalt uptake: 30.8±2.9%
HDRGVIII-C10.6 cells [2]; Proliferative, held at -80 mV
  I Capsaicin: 0 pA
HDRGVIII-C10.6 cells [2]; THSFskGCN, 8 days
  I Capsaicin: 114 ± 14 pA
HDRGVIII-C10.6 cells [2]; THSFskGCN, 11 days
  I Capsaicin: 217 ± 36 pA

## Oc1cc2c(cc1O)CN(C(=S)NCCc1ccc(Cl)cc1)CCC2 [capsazepine]
Capsaicin receptors [3]; 20 μM capsazepine
  effect on response to 1 μM capsaicin: blocked; also recorded: inhibited
Capsaicin receptors [4]; 100 μM capsazepine
  effect on capsaicin (10 μM)-induced cobalt labeling: reduced substantially

## C=C[C@@]1(C)CC(=O)[C@]2(O)[C@@]3(C)[C@@H](O)CCC(C)(C)[C@@H]3[C@H](O)[C@H](OC(C)=O)[C@@]2(C)O1 [forskolin]
HDRGVIII-C10 cells
  cells with NF160 staining: 15±2.2%

## CC1=C(/C=C/C(C)=C/C=C/C(C)=C/C(=O)O)C(C)(C)CCC1 [retinoic acid]
HDRGVIII-C10 cells
  cells with NF160 staining: 8.1%

## CN(C)[C@@H]1C(O)=C(C(N)=O)C(=O)[C@@]2(O)C(O)=C3C(=O)c4c(O)cccc4[C@@](C)(O)[C@H]3C[C@@H]12 [tetracycline]
[7]; tetracycline alone
  βIII tubulin positive neurons: ~2.5%
v-myc oncoprotein
  percentage of v-myc positive cells: 1.1±0.8%

## Nc1ncnc2c1ncn2[C@@H]1O[C@H](COP(=O)(O)CP(=O)(O)OP(=O)(O)O)[C@@H](O)[C@H]1O [αβ-meATP, αβ-methylene-ATP]
[1]
  desensitization of elicited currents: ~15%
[1]; differentiated rat DRG cells
  cells with αβ-meATP responses: 1 of 20
HDRGVIII-C10.6 cells [2]; Proliferative, held at -80 mV
  I Purinergic (αβmeATP): 29 ± 15 pA
HDRGVIII-C10.6 cells [2]; THSFskGCN, 8 days
  I Purinergic (αβmeATP): 3 ± 3 pA
HDRGVIII-C10.6 cells [2]; THSFskGCN, 11 days
  I Purinergic (αβmeATP): 226 ± 80 pA
[8]
  currents elicited: Rapidly activating and strongly desensitizing currents

## IL-1β: interleukin-1β
[7]
  βIII-tubulin positive cells: 33%

## LIF: leukemia inhibitory factor
[9]
  βIII tubulin positive cells: 28.4%

B1: NT-3: neurotrophin-3 (protein, UniProt P20783 139-257, looked up)
Neurotrophin-3: YAEHKSHRGEYSVCDSESLWVTDKSSAIDIRGHQVTVLGEIKTGNSPVKQYFYETRCKEARPVKNGCRGIDDKHWNSQCKTSQTYVRALTSENNKLVGWRWIRIDTSCVCALSRKIGRT
[7]; NT-3 added to medium containing NGF plus LIF or CNTF (less than 25% in absence of NT-3)
  βIII tubulin positive cells expressing NF160: ≥ 65%
HDRGVIII-C11 cells; NT-3 added to standard differentiating medium (1.4±0.6% without NT-3)
  cells differentiated into βIII-tubulin-positive neurons: 4.0±2.2%
HDRGVIII-C10.6 cells [10]
  cells expressing peripherin: 43±8%

B2: IL-11: interleukin IL-11, differentiating factor (protein, UniProt P20809 22-199, looked up)
Interleukin-11: PGPPPGPPRVSPDPRAELDSTVLLTRSLLADTRQLAAQLRDKFPADGDHNLDSLPTLAMSAGALGALQLPGVLTRLRADLLSYLRHVQWLRRAGGSSLKTLEPELGTLQARLDRLLRRLQLLMSRLALPQPPPDPPAPPLAPPSSAWGGIRAAHAILGGLHLTLDWAVRGLLLLKTRL
[7]
  βIII-tubulin positive cells: 34%
HDRGVIII-C11 cells; differentiated with T, HS, Fsk, NGF plus IL-11
  βIII-tubulin-positive neurons: 1.5±0.9%
